Laboratory results taken from patent EP0643964A2 (priority 1993, dated 1995).
Several values for one entry are separate records, joined by “and”; a condition that tells them apart may be missing. Equal values may be shown once. Read-outs that look alike come from different tables or passages of the source.

Key:
[1] = system: patients with acute hemorraghic diarrhea; assay: Intravenous treatment of patients with acute hemorrhagic diarrhea; assay type: in vivo, human
Method: Rectoscopies were performed in all patients immediately before treatment, 2 and 7 days later. Two (2) of the patients accepted to be biopsed at the moment of the first and second rectoscopies.

[2] = system: patient with an history of ulcerative colitis; assay: Intravenous treatment of a patient with ulcerative colitis; assay type: in vivo, human
[3] = system: Foot-and-mouth disease virus (FMDV); assay type: in vivo, Swiss mice
Cryptococcus neoformans = assay: Cryptococcoses in experimentally infected mice; assay type: in vivo, Swiss mice; details: 0.1 ml 0.2% lidocaine i.p. twice a day
Method: Animals: 5-7 month old female Swiss mice were used. Experimental schedule: mice received by intraperitoneal route 0.5 ml of a suspension of 10⁷ Cryptococcus neoformans grown in Sabureaud medium.
Two animals of each group (experimental and control groups) were sacrificed at 2, 5 and 10 days post-infection and samples of liver, pancreas, brain, spleen, lung, kidney and bowel were obtained for microscopic examination.

HIV (RETROVIRUS) = assay: Evolution of HIV infected patients (CD4+ counts); assay type: in vivo, human; details: for number of CD4+ cells in blood: individual patients 1-4
From the text: One group experiment consisted in 6 volunteer patients males and females aged between 22 and 35. […] Patient 5 and patient 6, just received saline by same route and frequency as treated patients.
The evolution of the disease in the analyzed patients was done by counting the number of CD4+ cells/mm³ blood and the CD4/CD8 ratio. Blood samples were collected every 15 days.
Treatment of patients started after the fourth sample extraction.

## CCN(CC)CC(=O)Nc1c(C)cccc1C [lidocaine]
[1]; 4 patients, 5 ml 2% solution i.v. twice a day for 2 days, after 48 hours of treatment
  Symptomatology: abolishment of symptomatology
[1]; second biopsy (2 patients)
  Microscopic examination of mucosa: Slight chronic inflammatory process with indemnity of epithelium
[1]; second rectoscopy, 2 days after start of treatment
  Rectoscopy: congestive and edematous mucosa, without hemorrhages and erosions
[1]; third rectoscopy, 7 days later
  Rectoscopy: normal mucosa
[2]; 4 i.v. doses each 12 hours per week, 4 weeks (5 ml, 2% solution), during the treatment
  Diarrhea: diarrhea disappeared
[2]; 5th week
  Colonoscopy: congestive and edematous mucosa; no erosion could be observed
[2]; biopsy, 5th week
  histopathological diagnosis: quiescent ulcerative colitis
[3]; 0.1 ml 0.1% i.p., 8am and 8pm day 1 (group E)
  PRESENCE OF PMNs: 80-90%
[3]; 0.1 ml 0.1% i.p., 8am and 8pm on day 1 and day 2 (group F)
  PRESENCE OF PMNs: 10%
[3]; 0.1 ml 0.2% i.p., 8am and 8pm day 1 (group C)
  PRESENCE OF PMNs: 30-40%
[3]; 0.1 ml 0.2% i.p., 8am day 1 only (group B)
  PRESENCE OF PMNs: 60-70%
[3]; 0.1 ml 0.2% i.p., 8am, 8pm day 1 and 8am day 2 (group D)
  PRESENCE OF PMNs: 30%
[3]; 0.1 ml 0.4% i.p., 8am day 1 only (group A)
  PRESENCE OF PMNs: 10%
[3]; 0.1 ml 0.8% lidocaine i.m. twice a day, 24 hours before FMDV infection
  PRESENCE OF PMNs: 10%
[3]; 0.1 ml lidocaine 0.2% i.m. twice a day 2 days (group C)
  PRESENCE OF PMNs: 80-90%
[3]; 0.1 ml lidocaine 0.4% i.m. twice a day 2 days (group B)
  PRESENCE OF PMNs: 60-70%
[3]; 0.1 ml lidocaine 0.8% i.m. twice a day 2 days (group A)
  PRESENCE OF PMNs: 30-50%
[3]; groups A (lidocaine endovenous 24 h after FMDV) and C (simultaneous), 48 hours post-infection
  Microscopic examination of the pancreas: minimal inflammatory damage with absence of necrosis
[3]; groups A and C, 72 hours post-infection
  Microscopic examination of the pancreas: no pancreatic damage could be found
[3]; lidocaine concentration 0.1%, i.m. twice a day 2 days
  PRESENCE OF PMNs: 50-60%
[3]; lidocaine concentration 0.2%, i.m. twice a day 2 days
  PRESENCE OF PMNs: 20-30%
[3]; lidocaine concentration 0.3%, i.m. twice a day 2 days
  PRESENCE OF PMNs: 10-20%
[3]; lidocaine concentration 0.4%, i.m. twice a day 2 days
  PRESENCE OF PMNs: 10-20%
[3]; lidocaine concentration 0.5%, i.m. twice a day 2 days
  PRESENCE OF PMNs: 10-20%
[3]; oral route, 0.1 ml of 2% solution twice a day 2 days
  PRESENCE OF PMNs: 50-100%
[3]; oral route, 0.2 ml of 2% solution twice a day 2 days
  PRESENCE OF PMNs: 30-60%
[3]; oral route, 0.3 ml of 2% solution twice a day 2 days
  PRESENCE OF PMNs: 30-60%
[3]; oral route, 0.4 ml of 2% solution twice a day 2 days
  PRESENCE OF PMNs: 50%
[3]; oral route, 0.5 ml. of 2% solution twice a day 2 days
  PRESENCE OF PMNs: 20-30%
Cryptococcus neoformans; 48 hours post-infection
  Microscopic examination of organs: only a generalized vascular congestion
Cryptococcus neoformans; 5 days post-infection
  Microscopic examination of organs: discrete mononuclear cell infiltrate in liver parenchyma and swelling of pancreatic tissue, with absence of inflammatory cells
Cryptococcus neoformans; day 10 pi
  Microscopic examination of organs: scarce granulomas in hepatic parenchyma
HIV (RETROVIRUS); all the treated patients, controls decreased
  CD4 counting: increase or no decrease
HIV (RETROVIRUS); sample 1 (every 2 weeks), before treatment
  number of CD4+ cells in blood: 480 cells/mm³ and 294 cells/mm³ and 230 cells/mm³ and 500 cells/mm³
HIV (RETROVIRUS); sample 2, before treatment
  number of CD4+ cells in blood: 475 cells/mm³ and 294 cells/mm³ and 238 cells/mm³ and 496 cells/mm³
HIV (RETROVIRUS); sample 3, before treatment
  number of CD4+ cells in blood: 475 cells/mm³ and 280 cells/mm³ and 235 cells/mm³ and 496 cells/mm³
HIV (RETROVIRUS); sample 4, last before treatment
  number of CD4+ cells in blood: 480 cells/mm³ and 270 cells/mm³ and 234 cells/mm³ and 485 cells/mm³
